According to patent US7563781B2, “Triazolopyrimidine derivatives” (Janssen Pharmaceutica NV, priority 2006, dated 2009):

Key:
[1] = target: T1, Focal Adhesion Kinase (full-length Flag-tagged human FAK) (Homo sapiens, UniProt Q05397); assay: in vitro FAK ELISA kinase assay; type: biochemical; conditions: compound 10 uM; ATP 2 uM; read-out: FAK % Inhib ave: 10 uM
T1 construct: a purified recombinant full-length Flag-tagged human FAK protein; Flag; made in house; host or cells: baculovirus infected insect cells
T1 sequence (Q05397 whole entry): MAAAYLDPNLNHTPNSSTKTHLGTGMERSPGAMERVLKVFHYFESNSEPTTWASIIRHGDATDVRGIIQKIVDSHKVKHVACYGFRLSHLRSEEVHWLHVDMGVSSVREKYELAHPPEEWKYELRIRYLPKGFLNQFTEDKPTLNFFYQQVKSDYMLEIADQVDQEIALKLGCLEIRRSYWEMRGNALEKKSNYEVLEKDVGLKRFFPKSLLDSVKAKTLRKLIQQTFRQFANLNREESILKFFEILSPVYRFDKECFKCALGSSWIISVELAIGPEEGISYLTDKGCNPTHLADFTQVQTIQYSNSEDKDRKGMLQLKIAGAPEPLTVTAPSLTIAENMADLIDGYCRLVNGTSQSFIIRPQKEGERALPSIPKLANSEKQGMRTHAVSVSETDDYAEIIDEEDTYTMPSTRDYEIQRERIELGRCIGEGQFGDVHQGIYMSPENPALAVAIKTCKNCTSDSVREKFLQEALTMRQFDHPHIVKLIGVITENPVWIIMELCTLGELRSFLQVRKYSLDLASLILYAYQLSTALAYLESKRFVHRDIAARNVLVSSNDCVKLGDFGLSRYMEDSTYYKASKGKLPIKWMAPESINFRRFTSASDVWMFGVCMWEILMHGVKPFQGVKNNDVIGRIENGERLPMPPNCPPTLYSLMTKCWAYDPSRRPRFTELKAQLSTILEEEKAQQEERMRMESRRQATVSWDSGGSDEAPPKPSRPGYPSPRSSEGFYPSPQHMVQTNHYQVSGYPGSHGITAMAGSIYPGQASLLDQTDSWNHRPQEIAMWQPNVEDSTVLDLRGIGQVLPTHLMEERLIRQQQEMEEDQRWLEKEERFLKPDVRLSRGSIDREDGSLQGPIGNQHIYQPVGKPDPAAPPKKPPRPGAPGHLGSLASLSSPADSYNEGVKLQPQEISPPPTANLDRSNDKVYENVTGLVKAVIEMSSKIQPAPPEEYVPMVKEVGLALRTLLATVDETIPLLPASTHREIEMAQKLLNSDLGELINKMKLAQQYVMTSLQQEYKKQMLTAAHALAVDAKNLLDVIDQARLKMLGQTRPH
In short: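 Plate-coated GST fusion of the 73-residue region around Tyr397 phosphorylated by full-length Flag-tagged human FAK from baculovirus-infected insect cells, with 2 μM ATP in Mg/Mn HEPES pH 7.5, 1 h at 30 °C. Phosphotyrosine detected by HRP-anti-pTyr ELISA with TMB read-out. Compounds screened at 10 μM or titrated from 50 μM in half-log steps for IC50, BSA-substrate background subtracted.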

[2] = target: T2, CAK complex (human Cdk7, human Cyclin H, MAT-1) (Homo sapiens, UniProt P50613); assay: in vitro time-resolved-fluorescence assay for the CAK kinase activity; type: biochemical; conditions: compound 20 uM; read-out: CAK % inhib; 20 uM
T2 construct: made in house; host or cells: SF-900 insect cells co-infected with Flag-Cdk7 and Bab-Cyclin H baculoviruses
T2 sequence (P50613 with tags, fused parts or gaps): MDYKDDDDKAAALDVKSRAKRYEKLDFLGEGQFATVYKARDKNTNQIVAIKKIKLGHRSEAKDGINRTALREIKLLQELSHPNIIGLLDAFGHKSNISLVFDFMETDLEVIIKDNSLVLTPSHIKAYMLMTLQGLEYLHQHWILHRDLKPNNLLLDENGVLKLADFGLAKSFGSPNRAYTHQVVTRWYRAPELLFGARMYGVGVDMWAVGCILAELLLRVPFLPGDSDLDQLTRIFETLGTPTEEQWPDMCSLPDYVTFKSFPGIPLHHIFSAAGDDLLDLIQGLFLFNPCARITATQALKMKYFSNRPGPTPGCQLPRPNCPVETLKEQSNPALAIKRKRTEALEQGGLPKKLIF
T2 sequence (as listed by the source partner): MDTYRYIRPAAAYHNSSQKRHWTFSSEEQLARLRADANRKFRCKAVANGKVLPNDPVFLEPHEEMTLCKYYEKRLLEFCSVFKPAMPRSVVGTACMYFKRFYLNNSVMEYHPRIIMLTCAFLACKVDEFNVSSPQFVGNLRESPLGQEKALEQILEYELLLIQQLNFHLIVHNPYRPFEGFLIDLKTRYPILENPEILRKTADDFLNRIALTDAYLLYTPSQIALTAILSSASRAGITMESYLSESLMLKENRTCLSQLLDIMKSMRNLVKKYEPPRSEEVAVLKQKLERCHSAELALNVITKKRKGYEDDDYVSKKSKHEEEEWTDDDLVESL
In short: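 Kinase activity of the human CAK complex (Flag-tagged Cdk7, Cyclin H, MAT-1), purified from co-infected SF-900 insect cells by Flag-M2 immunoaffinity, was measured by time-resolved fluorescence. In black glutathione-coated 96-well plates, 500 ng GST-CTD substrate with 22 uM ATP was mixed with compound in 30% DMSO/25 mM Hepes and 250 ng CAK. Plates were incubated 20 minutes at 30° C, then stopped with EDTA, bound overnight and washed. A Europium-labeled antibody detected serine-phosphorylated CTD.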

Row | inhibition at 10 µM [1] | inhibition at 20 µM [2] | Structure (SMILES)
1 | 27% | -11.4% | CCN(CC)CCNC(=O)c1ccc(Nc2ncc3nnn(Cc4ccc(N(C)C)cc4)c3n2)cc1 [Compound 69, N-(2-Diethylamino-ethyl)-4-[3-(4-dimethylamino-benzyl)-3H-[1,2,3]triazolo[4,5-d]pyrimidin-5-ylamino]-benzamide]
2 | 15% | 21% | CCN(CC)CCNC(=O)c1ccc(Nc2ncc3nnn([C@@H](CO)[C@@H](O)c4ccccc4)c3n2)cc1 [Compound 70, N-(2-Diethylamino-ethyl)-4-[3-(2-hydroxy-1-hydroxymethyl-2-phenyl-ethyl)-3H-[1,2,3]triazolo[4,5-d]pyrimidin-5-ylamino]-benzamide]
3 | 27.5% | 52.8% | CCN(CC)CCNC(=O)c1ccc(Nc2ncc3nnn(Cc4nc5ccccc5[nH]4)c3n2)cc1 [Compound 71, 4-[3-(1H-Benzoimidazol-2-ylmethyl)-3H-[1,2,3]triazolo[4,5-d]pyrimidin-5-ylamino]-N-(2-diethylamino-ethyl)-benzamide]
4 | 81.5% | 98.4% | O=C(NCCCN1CCCC1)c1cccc(Nc2ncc3nnn(-c4ccc5c(c4)CCC5)c3n2)c1 [Compound 72, 3-(3-Indan-5-yl-3H-[1,2,3]triazolo[4,5-d]pyrimidin-5-ylamino)-N-(3-pyrrolidin-1-yl-propyl)-benzamide]
5 | 31.2% | 47.5% | O=C(NCCN1CCOCC1)c1cccc(Nc2ncc3nnn(-c4ccc5c(c4)CCC5)c3n2)c1 [Compound 73, 3-(3-Indan-5-yl-3H-[1,2,3]triazolo[4,5-d]pyrimidin-5-ylamino)-N-(2-morpholin-4-yl-ethyl)-benzamide]
6 | 72.8% | 42.7% | O=C(NCCCn1ccnc1)c1ccc(Nc2ncc3nnn(-c4ccc5c(c4)CCC5)c3n2)cc1 [Compound 74, N-(3-Imidazol-1-yl-propyl)-4-(3-indan-5-yl-3H-[1,2,3]triazolo[4,5-d]pyrimidin-5-ylamino)-benzamide]
7 | 77.9% | 84% | O=C(NCCCN1CCCC1)c1ccc(Nc2ncc3nnn(-c4ccc5c(c4)CCC5)c3n2)cc1 [Compound 75, 4-(3-Indan-5-yl-3H-[1,2,3]triazolo[4,5-d]pyrimidin-5-ylamino)-N-(3-pyrrolidin-1-yl-propyl)-benzamide]
8 | 34.7% | 10.2% | O=C(NCCN1CCOCC1)c1ccc(Nc2ncc3nnn(-c4ccc5c(c4)CCC5)c3n2)cc1 [Compound 76, 4-(3-Indan-5-yl-3H-[1,2,3]triazolo[4,5-d]pyrimidin-5-ylamino)-N-(2-morpholin-4-yl-ethyl)-benzamide]
9 | 54.2% | 72.1% | O=C(NCCCN1CCCC1=O)c1ccc(Nc2ncc3nnn(-c4ccc5c(c4)CCC5)c3n2)cc1 [Compound 77, 4-(3-Indan-5-yl-3H-[1,2,3]triazolo[4,5-d]pyrimidin-5-ylamino)-N-[3-(2-oxo-pyrrolidin-1-yl)-propyl]-benzamide]
10 | 72% | 89% | CN1CCN(CCCNC(=O)c2ccc(Nc3ncc4nnn(-c5ccc6c(c5)CCC6)c4n3)cc2)CC1 [Compound 78, 4-(3-Indan-5-yl-3H-[1,2,3]triazolo[4,5-d]pyrimidin-5-ylamino)-N-[3-(4-methyl-piperazin-1-yl)-propyl]-benzamide]

The remaining lines, values behind:

Row | Structure (SMILES) | inhibition at 10 µM [1] | inhibition at 20 µM [2]
11 | CCN(CC)CCNC(=O)c1ccc(Nc2ncc3nnn(-c4ccc(N5CCN(Cc6ccccc6)CC5)cc4)c3n2)cc1 [Compound 56, 4-{3-[4-(4-Benzyl-piperazin-1-yl)-phenyl]-3H-[1,2,3]triazolo[4,5-d]pyrimidin-5-ylamino}-N-(2-diethylamino-ethyl)-benzamide] | 75.5% | 87.3%
12 | CCCCNS(=O)(=O)c1cccc(Nc2ncc3nnn(Cc4ccccc4)c3n2)c1 [Compound 57] | 22% | 34.1%
13 | CCN(CC)CCNC(=O)c1ccc(Nc2ncc3nnn(Cc4ccccc4)c3n2)cc1 [Compound 58, 4-(3-Benzyl-3H-[1,2,3]triazolo[4,5-d]pyrimidin-5-ylamino)-N-(2-diethylamino-ethyl)-benzamide] | 59% | 58%
14 | c1ccc(CN2CCN(c3ccc(Nc4ncc5nnn(Cc6ccccc6)c5n4)cc3)CC2)cc1 [Compound 59, [4-(4-Benzyl-piperazin-1-yl)-phenyl]-(3-benzyl-3H-[1,2,3]triazolo[4,5-d]pyrimidin-5-yl)-amine] | 25% | 47%
15 | c1cc(Nc2ncc3nnn(C4CCc5ccccc54)c3n2)cc(-c2nnn[nH]2)c1 (stereo not shown) [Compound 60, (3-Indan-1-yl-3H-[1,2,3]triazolo[4,5-d]pyrimidin-5-yl)-[3-(1H-tetrazol-5-yl)-phenyl]-amine] | 26.8% | -0.99%
16 | CCN(CC)CCNC(=O)c1ccc(Nc2ncc3nnn(C4CCc5ccccc54)c3n2)cc1 (stereo not shown) [Compound 61, N-(2-Diethylamino-ethyl)-4-(3-indan-1-yl-3H-[1,2,3]triazolo[4,5-d]pyrimidin-5-ylamino)-benzamide] | 85.5% | 79.4%
17 | CCN(CC)CCNC(=O)c1ccc(Nc2ncc3nnn(-c4cccc(-c5nnn[nH]5)c4)c3n2)cc1 [Compound 62, N-(2-Diethylamino-ethyl)-4-{3-[3-(1H-tetrazol-5-yl)-phenyl]-3H-[1,2,3]triazolo[4,5-d]pyrimidin-5-ylamino}-benzamide] | 66.7% | 45.3%
18 | CCOC(=O)N1CCC(n2nnc3cnc(Nc4cccc(-c5nnn[nH]5)c4)nc32)CC1 [Compound 63, 4-{5-[3-(1H-Tetrazol-5-yl)-phenylamino]-[1,2,3]triazolo[4,5-d]pyrimidin-3-yl}-piperidine-1-carboxylic acid ethyl ester] | 59.8% | 39.3%
19 | CCOC(=O)N1CCC(n2nnc3cnc(Nc4ccc(C(=O)NCCN(CC)CC)cc4)nc32)CC1 [Compound 64, 4-{5-[4-(2-Diethylamino-ethylcarbamoyl)-phenylamino]-[1,2,3]triazolo[4,5-d]pyrimidin-3-yl}-piperidine-1-carboxylic acid ethyl ester] | 29.1% | 33.9%
20 | CCN(CC)CCNC(=O)c1ccc(-n2nnc3cnc(Nc4cccc(-c5nnn[nH]5)c4)nc32)cc1 [Compound 65, N-(2-Diethylamino-ethyl)-4-{5-[3-(1H-tetrazol-5-yl)-phenylamino]-[1,2,3]triazolo[4,5-d]pyrimidin-3-yl}-benzamide] | 54.7% | 42.7%
21 | CCN(CC)CCNC(=O)c1ccc(Nc2ncc3nnn(-c4cc[nH]n4)c3n2)cc1 [Compound 66] | 87.2% | 68.1%
22 | c1cc(Nc2ncc3nnn(C4CCCC4)c3n2)cc(-c2nnn[nH]2)c1 [Compound 67, (3-Cyclopentyl-3H-[1,2,3]triazolo[4,5-d]pyrimidin-5-yl)-[3-(1H-tetrazol-5-yl)-phenyl]-amine] | 15.4% | 44.2%
23 | CCN(CC)CCNC(=O)c1ccc(Nc2ncc3nnn(C4CCCC4)c3n2)cc1 [Compound 68, 4-(3-Cyclopentyl-3H-[1,2,3]triazolo[4,5-d]pyrimidin-5-ylamino)-N-(2-diethylamino-ethyl)-benzamide] | 56.5% | 63.8%
